In US20130245061A1, “PHARMACEUTICAL COMPOSITIONS” (NOVARTIS AG, priority 2010, published 2013):

What was measured:
[1] = pH-dependent solubility of the therapeutic compound; format: physicochemical; conditions: pH higher than 3
[2] = 2-Step Dissolution Test (pH 2 then pH 6.8); format: physicochemical; conditions: pH 6.8, second step; FIG. 2
Protocol: Capsules containing either Compound A alone, Formulation Variant 1 or Variant 2 are placed in 900 mL of pH 2 HCl and then stirred in a USP Apparatus II rotating at 50 rpm for 10 to 100 minutes (with fast stir from about minute 60 to minute 90). At approximately the 100 minute time point, this medium is adjusted to pH 6.8 and to a volume of 1000 ml and then stirred in a USP Apparatus II rotating at 50 rpm. Samples are filtered using a 100 μm Varian full flow filter and analyzed by UV.
Capsules containing either Compound A alone, Formulation Variants 1 or 2 are separately evaluated using a 2-Step Dissolution Test. This analysis compared the dissolution profile of capsules containing 68.5 mg per unit of 2-methyl-2-[4-(3-methyl-2-oxo-8-quinolin-3-yl-2,3-dihydro-imidazo[4,5-c]quinolin-1-yl)-phenyl]-propionitrile monotosylate salt (which is equivalent to 50 mg of the free base of 2-methyl-2-[4-(3-methyl-2-oxo-8-quinolin-3-yl-2,3-dihydro-imidazo[4,5-c]quinolin-1-yl)-phenyl]-propionitrile) at pH 2 and pH 6.8.
For this analysis, capsules containing either Compound A alone, Formulation Variant 1 or Variant 2 are placed in 900 mL of pH 2 HCl and then stirred in a USP Apparatus II rotating at 50 rpm for 10-100 minutes (with fast stir from about minute 60 to minute 90). […] Samples are filtered using a 100 μm Varian Full Flow filter and analyzed by HPLC.

[3] = permeability of the therapeutic compound; format: in vitro ADME

solubility [1]: approximately 0%
drug release [2]: approximately 0%
permeability [3]: low
Compound: Cn1c(=O)n(-c2ccc(C(C)(C)C#N)cc2)c2c3cc(-c4cnc5ccccc5c4)ccc3ncc21 [Compound A, 2-methyl-2-[4-(3-methyl-2-oxo-8-quinolin-3-yl-2,3-dihydro-imidazo[4,5-c]quinolin-1-yl)-phenyl]-propionitrile]
